We go through 2 molecules from patent publication US10273313B2, “Multimeric mannosides, a process for preparing the same and their uses as a drug” (CENTRE NATIONAL DE LA RECHERCHE SCIENTIFIQUE, priority 2012, dated 2019).

Data set [1] deals with E. coli strain UTI89 expressing type-1 fimbriae. As to the kind of experiment: Bacterial crosslinking, epi-fluorescence microscopy. To be noted: acridin orange colored UTI89. Format: cell-based, Escherichia coli. The method, then:
The possibility to capture living bacteria in solution with β-CD-based glycol-clusters 2 and 4, using epi-fluorescence microscopy was investigated.
It was decided to evaluate if the FimH aggregation evidenced in ITC, DLS and SAXS could also occur when the lectin is attached at the tip of the bacteria pili. E. coli strain UTI89 expressing type-1 fimbriae. Said bacteria were diluted from the culture medium into PBS and glyco-conjugated in a ten-fold dilution series of 2 or 4 were added. Bacterial cells were then colored with acridin orange.
100 μl of glycoconjugate-agglutinated E. coli were washed in 1 ml PBS, resuspended in 200 μl 0.1% acridin orange and left at room temperature for 2.5 hours. The bacterial cells were washed again in 1 ml PBS to remove unbound acridin orange. A microscope glass was rinsed with 100% EtOH and next dried at the air.

Data set [2] relates to AIEC LF82 strain adhesion to T84 intestinal epithelial cells. As to the kind of experiment: Adhesion assay on T84 cells, cells incubated 1 h with mannoside prior infection (Example 21.1). It is filed as cell-based, Escherichia coli. The method, then: (§1) E. coli strain LF82 was isolated from a chronic ileal lesion of a patient with Crohn's disease (CD). Bacteria were grown routinely in Luria-Bertani (LB) broth overnight at 37° C. Intestinal epithelial cells T84 derived from colonic adenocarcinoma were maintained in an atmosphere containing 5% CO2 at 37° C. in DMEM/F12 (50/50) medium supplemented with 10% (v/v) heat-inactivated fetal calf serum (FCS), 1% L-glutamine, 100 000 U·l^−1 penicillin, 100 mg·l^−1 streptomycin, 25 μg·l^−1 amphotericin B.
T84 cells were seeded in 48-well tissue culture plates with 1.5×10^5 cells per well and grown for 48 h. Cells were incubated 1 h prior infection with each mannoside at a final concentration of 100; 10; 1 or 0.1 μM in complete medium without antibiotics, containing heat inactivated fetal calf serum (FCS) and were next infected with AIEC LF82 strain at a multiplicity of infection (MOI) of 10 bacteria per cell. After a 3 h incubation period at 37° C., the monolayers were washed in phosphate-buffered saline (PBS; pH 7.2). The epithelial cells were then lysed with 1% Triton X-100 in deionized water. Samples were diluted and plated onto Luria Bertani agar plates to determine the number of cfu recovered from the lysed monolayers.
Results were expressed in percentage of residual adhesion, considering adhesion level of AIEC LF82 without mannoside treatment as 100%.

The test system of data set [3] is AIEC LF82 bacteria adhesion to T84 intestinal epithelial cells. Nature of the data set: Adhesion assay on T84 cells, pre-, co- and post-incubation protocols (Example 21.2). It is filed as cell-based, Escherichia coli. To be noted: for Concentration leading to decreased adhesion levels of at least 50%: pre-incubation assay. The method, then: as §1
T84 were seeded in 48-well plates at a concentration of 1.5×10^5 cells per well and grown for 48 h. AIEC LF82 bacteria were incubated 1 h with each mannoside prior the cell infection (pre-incubation protocol) or they were added simultaneously onto the cells (co-incubation protocol) in complete medium without antibiotics, containing heat inactivated fetal calf serum (FCS). Heptyl-mannose or compound 2 (example 1) were tested at a dose of 100; 10; 1 or 0.1 μM. D-D-mannose was tested at a dose of 10 000; 1 000; 100 or 10 μM and compound 1 (example 2bis) was tested at a concentration of 500; 100; 10 or 1 μM. Cells were infected with AIEC LF82 bacteria at a multiplicity of infection (MOI) of 10 bacteria per cell for 3 h at 37° C. For the post-incubation protocol, mannosides were incubated with cells for 3 h after bacterial infection. A washing step was realized before this post-incubation to eliminate non-adherent bacteria. Monolayers were washed in phosphate-buffered saline (PBS; pH 7.2) and cells were then lysed with 1% Triton X-100 in deionized water. Samples were diluted and plated onto Luria Bertani agar plates to determine the number of colony-forming units (CFU) recovered from the lysed monolayers. Results were expressed as percentages of residual adhesion, considering adhesion level of AIEC LF82 without mannoside treatment as 100%.

Data set [4] deals with AIEC LF82 bacteria in colonic loops of CEABAC10 mice expressing human CEACAM6. As to the kind of experiment: Adhesion assay in colonic loops of CEABAC10 mice. To be noted: dose of 0.1 μmol, 4 h incubation. It is filed as in vivo. The method, then:
E. coli strain LF82 was isolated from a chronic ileal lesion of a patient with Crohn's disease (CD). Bacteria were grown routinely in Luria-Bertani (LB) broth overnight at 37° C.
The transgenic mouse model CEABAC10 expressing the human CEACAM6 protein is available in the UMR Inserm/Université d'Auvergne 1071 led by Professor Arlette Darfeuille-Michaud at Clermont-Ferrand. This model is particularly suitable to reproduce the abnormal colonization by AIEC bacteria through the interaction with CEACAM6 molecules that were observed abnormally expressed in the ileal mucosa of Crohn's disease patients.
Three colonic loops were realized in anesthetized CEABAC10 mice. A volume of 100 μl of a bacterial suspension containing 6×10^6 bacteria/mL with or without inhibitory compound was injected into the loops (here, compound 2, example 1) or heptyl-mannose at a concentration of 100 μM). After an incubation period of 4 h, mice were euthanized and each loop was longitudinally opened, extensively washed and homogenized to numerate adherent LF82 bacteria. Bacterial adhesion was expressed as percentages of residual adhesion (100% corresponds to the adhesion in absence of any compound).

Data set [5] deals with human Jurkat cells. Nature of the data set: Prevention of FimH-induced apoptosis of Jurkat cells (24 h). The method, then: Eventually, we tested the ability of mannose-based inhibitors to prevent the induction of cell death of human Jurkat cells under the treatment with FimH. We cultures cells with the indicated compound for 24 h and counter percentage of viable (AnV−/Pi−), apoptotic (AnV+/Pi−) and necrotic cells (AnV+/PI+). […] 2. […] 3.
Apoptosis was induced by UV-B irradiation with 90 mJ/cm^2, apoptosis of human PMN cells was induced by 24 h aging. To quantify the rate of apoptosis, cells were analyzed by flow cytometry or fluorescent microscopy. Amongst other features, apoptosis is characterized by blebbing of the cellular membrane, leading to a decrease in the forward scatter (FSC) and an increase in the sideward scatter (SSC). For detection of phosphatidylserine (PS) exposure on the cell surface staining with FITC conjugated annexin V (Böhringer, Mannheim, Germany) in combination with propidium iodide (PI) (AxV/PI) was performed. 200.000 cells were stained for 30 minutes at 4° C. with 200 ng of AxV-FITC and 500 ng propidium iodide (PI) in 500 μl Ringer's solution [Nicoletti, Migliorati, Pagliacci, Grignani and Riccardi, A rapid and simple method for measuring thymocyte apoptosis by propidium iodide staining and flow cytometry. J Immunol Methods, 1991. 139.271-9]. The samples were immediately analyzed by flow cytometry of fluorescent microscopy.

Data set [6] concerns the target T1, FimH (Escherichia coli, UniProt P08191). To be noted: Surface Plasmon Resonance (SPR); read-out: Dissociation constant of the HM-FimH complex; cited from earlier work.
The target of data set [7] is T1, FimH. To be noted: Isothermal Titration calorimetry (ITC); read-out: Dissociation constant of the HM-FimH complex; cited from earlier work. (In general: Isothermal titration calorimetry measures the heat released or taken up as one component is titrated into another.)

Where two headings read alike, the source gives them in different places.

T1 sequence (P08191 22-300): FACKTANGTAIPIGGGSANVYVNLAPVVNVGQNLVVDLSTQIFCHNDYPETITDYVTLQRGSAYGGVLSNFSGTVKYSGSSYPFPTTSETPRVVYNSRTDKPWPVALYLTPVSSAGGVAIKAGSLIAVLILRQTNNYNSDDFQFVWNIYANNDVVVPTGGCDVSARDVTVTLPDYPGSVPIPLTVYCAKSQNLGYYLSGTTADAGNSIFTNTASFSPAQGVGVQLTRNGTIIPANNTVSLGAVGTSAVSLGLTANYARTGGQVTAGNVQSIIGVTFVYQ

Regarding `OCC1OC(OCCCCCCCOCc2cn(CC3OC4OC5C(Cn6cc(COCCCCCCCOC7OC(CO)C(O)C(O)C7O)nn6)OC(OC6C(Cn7cc(COCCCCCCCOC8OC(CO)C(O)C(O)C8O)nn7)OC(OC7C(Cn8cc(COCCCCCCCOC9OC(CO)C(O)C(O)C9O)nn8)OC(OC8C(Cn9cc(COCCCCCCCOC%10OC(CO)C(O)C(O)C%10O)nn9)OC(OC9C(Cn%10cc(COCCCCCCCOC%11OC(CO)C(O)C(O)C%11O)nn%10)OC(OC%10C(Cn%11cc(COCCCCCCCOC%12OC(CO)C(O)C(O)C%12O)nn%11)OC(OC3C(O)C4O)C(O)C%10O)C(O)C9O)C(O)C8O)C(O)C7O)C(O)C6O)C(O)C5O)nn2)C(O)C(O)C1O` (centres unmarked) [Compound 2], the “Bacterial clustering in solution” value in data set [1] is “formation of bacterial clusters”. Besides, in data set [2], the “Concentration reaching around 75% of binding inhibition (25% line)” value is 1 µM. For the same molecule, in data set [3] (post-incubation, 10 μM), the “Adhesion in the post-incubation protocol” value is listed as “significant decreased adhesion”. Moreover, the “Concentration leading to decreased adhesion levels of at least 50%” value in data set [3] came to 0.1 µM. Moreover, the “Bacterial adhesion in colonic loops compared with no inhibitor” value in data set [4] is given as “two-fold decreased adhesion”. Further, the “Toxicity to Jurkat cells” value in data set [5] is “not toxic”. The “Prevention of apoptosis induction by FimH” value in data set [5] (10 nM) and in data set [5] (100 nM) was “effectively prevented apoptosis induction” each time.

As for `CCCCCCCO[C@H]1O[C@H](CO)[C@@H](O)[C@H](O)[C@@H]1O` [HM, Heptylmannoside, reference compound], the “Concentration leading to decreased adhesion levels of at least 50%” value in data set [3] was found to be 10 µM. Further, the results for the Kd in data set [6] and in data set [7] were 5 nM and 7 nM, respectively.
